The results in this text go back to patent US20230116399A1, “Tumor Homing Statin Derivatives” (Da Zen Theranostics, Inc., priority 2019, published 2023).

The test system of assay [1] is RhoA/B in H-1975 human lung cancer tumors. Put plainly: RhoA/B membrane staining of tumor tissue, H-1975 mouse model. It is filed as in vivo, mice. As to conditions: 5 mg/kg. The protocol:
RhoA/RhoB membrane staining of tumor tissue of a H-1975 human lung cancer cell mouse model is performed as described below, and the tumor-bearing mice are treated with a THSD (here an ALSD of formula FIId, “DZ2a”, compound 7) in comparison to the corresponding unconjugated dye (“DZ1”) and to Gefinitib (an EGFR inhibitor drug used for treatment of certain breast, lung and other cancers).
H-1975 cells, a cell model for human lung cancer that is resistant to Gefitinib (an EGFR inhibitor drug used for treatment of certain breast, lung and other cancers) are cultured as described above and injected subcutaneously into mice to develop tumors. The mice and the tumors that are formed are systemically exposed to an ALSD (here of formula FIId, “DZ2a”, compound 7) by intravenous injection. The tumor-bearing mice are treated with either Gefitinib (20 mg/kg), or with an ALSD (here of formula FIId, “DZ2a”, compound 7, 5 mg/kg), an unconjugated dye of formula III (“DZ1”, 5 mg/kg) or a combination of the ALSD with Gefitinib.
For immunostaining of tumor tissue, the animals are sacrificed by prescribed and approved euthanasia techniques. Tumor tissue (maximum thickness 3 mm) is sliced, formalin fixated, embedded into paraffin blocks which are sectioned and processed into paraffin section slides. […]

For the next assay, the system named is 22RV1 (PC). Put plainly: MTT cell viability, 22RV1. It is filed as cell-based, human. As to conditions: Homo sapiens, 22Rv1, 22RV1, treated for 48 h /, relative IC50. As to the method:
(§1) Cell culture: In the following examples, unless otherwise specified, all cell lines are purchased from American Type Culture Collection and cultured in American Type Culture Collection (ATCC)-recommended media, with fetal bovine serum (FBS) to a final concentration of 10% and 1×penicillin/streptomycin at 37° C. with 5% CO2 in a cell culture incubator, unless otherwise specified. Unless otherwise specified, culture is 2D. Where culture is 3D, low attachment plates are used, with the same media. C4-2B (parental cell line and drug-resistant cells derived therefrom) are cultured in RPMI-1640 with 10% FBS. MDVR cells (an Enzalutamide-resistant variety of C4-2B prostate cancer cells formed as described in Example 4 below) are cultured as indicated for the parental C4-2B cells. 22RV1 Prostate Cancer (PC) cells (ATCC® CRL-2505™, a human prostate carcinoma cell line of epithelial morphology) are cultured in RPMI-1640 with 10% FBS. A549 cells (ATCC® CCL-185™, a human lung carcinoma cell line of epithelial morphology) are cultured in F-12K medium with 10% FBS. A549/DDP cells (Cells were described in DOI: 10.3892/mmr.2014.2163 and in doi: 10.7150/jca.19426; cisplatin resistant cells may be established from exposing parental A549 cells to cisplatin for an extended time). MDR A549/cisplatin lung adenocarcinoma cell line, drug resistant) are cultured in F-12K medium with 10% FBS. H1975 cells (ATCC® CRL-5908™, a human adenocarcinoma non-small cell lung cancer cell line of epithelial morphology) are cultured in RPMI-1640 medium with 10% FBS; H1975 cells are a cell model for human lung cancer that is resistant to Gefitinib (an EGFR inhibitor drug used for treatment of certain breast, lung and other cancers). H1650 cells (ATCC® CRL-5883™, a adenocarcinoma/bronchoalveolar carcinoma lung cancer cell line of epithelial morphology) are cultured in RPMI-1640 medium with 10% FBS. […]
[…] For each cell line, the IC50 is determined for each drug, i.e. the ELSD, the ALSD, and for the corresponding unconjugated statin (Simvastatin), in concentrations from 0.1-100 μM. […]

In another assay the test system is EZ-resistant C4-2B (PC). Put plainly: MTT cell viability, EZ-resistant C4-2B (MDVR). It counts as cell-based. Particulars: Homo sapiens, 48 h / 24 hours, relative IC50. As to the method: as §1, with “FBS.” for “FBS. H1975 cells (ATCC® CRL-5908™, a human adenocarcinoma non-small cell lung cancer cell line of epithelial morphology) are cultured in RPMI-1640 medium with 10% FBS; H1975 cells are a cell model for human lung cancer that is resistant to Gefitinib (an EGFR inhibitor drug used for treatment of certain breast, lung and other cancers). H1650 cells (ATCC® CRL-5883™, a adenocarcinoma/bronchoalveolar carcinoma lung cancer cell line of epithelial morphology) are cultured in RPMI-1640 medium with 10% FBS.”

The next assay concerns PC3 (PC). Put plainly: MTT cell viability, PC3. It is filed as cell-based. As to conditions: Homo sapiens, 48 h / 24 hours, relative IC50. As to the method:
as §1, with “FBS.” for “FBS. H1975 cells (ATCC® CRL-5908™, a human adenocarcinoma non-small cell lung cancer cell line of epithelial morphology) are cultured in RPMI-1640 medium with 10% FBS; H1975 cells are a cell model for human lung cancer that is resistant to Gefitinib (an EGFR inhibitor drug used for treatment of certain breast, lung and other cancers). H1650 cells (ATCC® CRL-5883™, a adenocarcinoma/bronchoalveolar carcinoma lung cancer cell line of epithelial morphology) are cultured in RPMI-1640 medium with 10% FBS.”

On to `CC1(C)C(/C=C/C2=C(Cl)C(=C/C=C3/N(CCCCCC(=O)O)c4ccccc4C3(C)C)/CCC2)=[N+](CCCCS(=O)(=O)[O-])c2ccccc21` [DZ1], for which the “RhoA/B staining of tumor cell membranes” value in assay [1] is on record as “staining persists in the membranes”.
For `CCC(C)(C)C(=O)O[C@H]1C[C@@H](C)C=C2C=C[C@H](C)[C@H](CC[C@@H]3C[C@@H](O)CC(=O)O3)[C@H]21` [Simvastatin], the IC50 amounted to 38.7 µM in the assay with 22RV1 (PC), 25.5 µM with EZ-resistant C4-2B (PC) and 14.8 µM in the assay with PC3 (PC).

What is called IC50 is the concentration at which inhibition is half-maximal.
